{"source": "patent US5026836A", "about": "“6-sulfenamide, 6-sulfinamide and 6-sulfonamide purines, purine nucleosides, purine nucleotides, pharmaceutical compositions, and processes of making” (priority 1988, dated 1991)", "key": {"Colon 26 Adenocarcinoma": {"system": "Colon 26 Adenocarcinoma", "test": "Survival of CDF1 mice bearing Colon 26 Adenocarcinoma", "type": "in vivo, mouse", "details": "for T/C (%): ≥150% significant", "protocol": "In Example Q Compound 19 was tested against Colon 26 Adenocarcinoma."}, "[1]": {"system": "drug resistant cell lines", "test": "Generation of drug resistant cell lines"}, "[2]": {"system": "human mammary carcinoma MX-1", "test": "Human mammary carcinoma MX-1 tumor weight in nu/nu mice", "type": "in vivo", "details": "qd days 1,3,5,7,9,11; for Tumor wt, staging day (mean ± 1SD): before treatment (day 17 post implant); for Tumor wt, evaluation day (mean ± 1SD): day 15 of treatment; for δT/δC: ≤20% moderate activity", "protocol": "In this example Compound 19 was tested against reticulum cell sarcoma M5076. For this and certain other tests below, test results are shown as δT/δC. Utilizing this protocol the difference in tumor weight before treatment and after treatment of the treated animals compared to the control animals is determined.\nIn Example P Compound 19 was tested against human mammary carcinoma MX-1."}, "Lewis lung carcinoma": {"system": "Lewis lung carcinoma", "test": "Activity against Lewis lung carcinoma", "details": "in vivo"}, "[3]": {"system": "human lung carcinoma LX-1", "test": "Activity against human lung carcinoma LX-1", "details": "in vivo"}, "[4]": {"test": "Toxicity / maximum tolerated dosage in mice", "type": "in vivo", "protocol": "In Example N other compounds of the invention were tested against L1210 cells. […] Activity in Table 14-a is tabulated as both increases in life span and as cells surviving treatment and that in table 14-b as T/C."}, "[5]": {"details": "ip 62 mg/kg/inj, bid days 1,4,7"}, "[6]": {"details": "ip 104 mg/kg/inj, qd days 1,3,5,7"}, "[7]": {"details": "ip 104 mg/kg/inj, qd days 1,4,7"}, "[8]": {"details": "ip 173 mg/kg/inj, qd days 1,3,5,7"}, "[9]": {"details": "ip 173 mg/kg/inj, qd days 1,4,7"}}, "note": "“Also recorded” adds a separate entry of the source. Where two headings read alike, the source gives them in different places.", "data": [{"smiles": "Nc1nc([S+](N)[O-])c2ncn([C@@H]3O[C@H](CO)[C@@H](O)[C@H]3O)c2n1", "note": "(mixture of isomers) [Compound 19, 2-amino-9-β-D-ribofuranosyl-9H-purine-6-sulfinamide]", "values": [{"measurement": "Median survival time", "setting": "Colon 26 Adenocarcinoma; [5]", "value": 45, "unit": "days post inoculation"}, {"measurement": "T/C (%)", "setting": "Colon 26 Adenocarcinoma; [5]", "value": 196, "unit": "%"}, {"measurement": "Median survival time", "setting": "Colon 26 Adenocarcinoma; ip 62 mg/kg/inj, qd days 1-7", "value": 40, "unit": "days post inoculation"}, {"measurement": "T/C (%)", "setting": "Colon 26 Adenocarcinoma; ip 62 mg/kg/inj, qd days 1-7", "value": 174, "unit": "%"}, {"measurement": "Median survival time", "setting": "Colon 26 Adenocarcinoma; ip 104 mg/kg/inj, bid days 1,4,7, group included 6 toxic deaths", "value": 17, "unit": "days post inoculation"}, {"measurement": "Median survival time", "setting": "Colon 26 Adenocarcinoma; [6]", "value": 34, "unit": "days post inoculation"}, {"measurement": "T/C (%)", "setting": "Colon 26 Adenocarcinoma; [6]", "value": 148, "unit": "%"}, {"measurement": "Median survival time", "setting": "Colon 26 Adenocarcinoma; [7]", "value": 31, "unit": "days post inoculation"}, {"measurement": "T/C (%)", "setting": "Colon 26 Adenocarcinoma; [7]", "value": 135, "unit": "%"}, {"measurement": "Median survival time", "setting": "Colon 26 Adenocarcinoma; ip 104 mg/kg/inj, qd days 1-7", "value": 38, "unit": "days post inoculation"}, {"measurement": "T/C (%)", "setting": "Colon 26 Adenocarcinoma; ip 104 mg/kg/inj, qd days 1-7", "value": 165, "unit": "%"}, {"measurement": "Median survival time", "setting": "Colon 26 Adenocarcinoma; [8]", "value": 42, "unit": "days post inoculation"}, {"measurement": "T/C (%)", "setting": "Colon 26 Adenocarcinoma; [8]", "value": 183, "unit": "%"}, {"measurement": "Median survival time", "setting": "Colon 26 Adenocarcinoma; [9]", "value": 31, "unit": "days post inoculation"}, {"measurement": "T/C (%)", "setting": "Colon 26 Adenocarcinoma; [9]", "value": 135, "unit": "%"}, {"measurement": "generation of drug resistant cell lines (words)", "setting": "[1]", "value": "has not been found to generate resistant cell lines"}, {"measurement": "generation of drug resistant cell lines (words)", "setting": "[1]; listed as 2-amino-9-β-D-ribofuranosyl-9H-purine-6-sulfinamide", "value": "lack of generating resistant cell lines; also recorded: lack of resistance cell generation"}, {"measurement": "Tumor wt, staging day (mean ± 1SD)", "setting": "[2]; ip 110.8 mg/kg/inj group", "value": "321 ± 132", "unit": "mg"}, {"measurement": "Tumor wt, staging day (mean ± 1SD)", "setting": "[2]; ip 138.4 mg/kg/inj group", "value": "330 ± 118", "unit": "mg"}, {"measurement": "Tumor wt, staging day (mean ± 1SD)", "setting": "[2]; ip 173.0 mg/kg/inj group", "value": "323 ± 127", "unit": "mg"}, {"measurement": "Tumor wt, evaluation day (mean ± 1SD)", "setting": "[2]; ip 110.8 mg/kg/inj", "value": "943 ± 297", "unit": "mg"}, {"measurement": "Tumor wt, evaluation day (mean ± 1SD)", "setting": "[2]; ip 138.4 mg/kg/inj", "value": "884 ± 415", "unit": "mg"}, {"measurement": "Tumor wt, evaluation day (mean ± 1SD)", "setting": "[2]; ip 173.0 mg/kg/inj", "value": "489 ± 104", "unit": "mg"}, {"measurement": "δT/δC", "setting": "[2]; ip 110.8 mg/kg/inj", "value": 66.1, "unit": "%"}, {"measurement": "δT/δC", "setting": "[2]; ip 138.4 mg/kg/inj", "value": 58.9, "unit": "%"}, {"measurement": "δT/δC", "setting": "[2]; ip 173.0 mg/kg/inj", "value": 17.6, "unit": "%"}, {"measurement": "activity against Lewis lung carcinoma", "setting": "Lewis lung carcinoma", "value": "No activity"}, {"measurement": "activity against human lung carcinoma LX-1", "setting": "[3]", "value": "No activity"}, {"measurement": "mice which died from drug toxicity", "setting": "[4]; ip 104 mg/kg/inj, bid days 1,4,7, L1210-inoculated BDF1 mice", "value": 1}, {"measurement": "toxicity (T/C column)", "setting": "[4]; ip 288 mg/kg, qd day 1, L1210-inoculated BDF1 mice", "value": "TOX"}, {"measurement": "mortality", "setting": "[4]; mouse, in vivo, 104 mg/kg, bid days 1,4,7, L1210-inoculated mice, read-out: toxic deaths per number of animals in test group (converted)", "value": 20, "unit": "%"}]}]}
